Data from PMC6602303, “Yeast ceramide synthases, Lag1 and Lac1, have distinct substrate specificity” (Journal of Cell Science, 2019).

Key:
Lag1 = target: T1, Lag1 (Saccharomyces cerevisiae, UniProt P38703); test: in vitro CerS assay, TLC fluorescence of NBD-ceramide; assay type: cell-free (lysate); conditions: labelled compound; 50 μM C26-CoA, 5 μM human ACBP1, 20 μM defatted BSA, 2 mM MgCl2, pH 7.2, 37°C; Δlac1Δsur2 lysate; read-out: apparent Km
T1 construct: native full-length protein in cryo-milled lysate of Δlac1Δsur2 yeast; with Ceramide synthase subunit LIP1
T1 sequence (P38703 1-411): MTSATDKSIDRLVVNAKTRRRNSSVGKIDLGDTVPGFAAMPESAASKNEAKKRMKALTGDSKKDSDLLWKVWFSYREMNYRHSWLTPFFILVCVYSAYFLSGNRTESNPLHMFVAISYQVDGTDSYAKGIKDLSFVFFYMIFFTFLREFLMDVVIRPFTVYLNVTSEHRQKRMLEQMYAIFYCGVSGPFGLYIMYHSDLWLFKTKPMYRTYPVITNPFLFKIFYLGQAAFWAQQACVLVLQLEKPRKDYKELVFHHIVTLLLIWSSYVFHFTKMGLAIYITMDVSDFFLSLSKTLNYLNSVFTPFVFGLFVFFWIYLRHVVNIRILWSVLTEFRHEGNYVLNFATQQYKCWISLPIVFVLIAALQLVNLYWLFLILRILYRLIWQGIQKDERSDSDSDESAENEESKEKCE
T1 sequence (Q03579 1-150 partner): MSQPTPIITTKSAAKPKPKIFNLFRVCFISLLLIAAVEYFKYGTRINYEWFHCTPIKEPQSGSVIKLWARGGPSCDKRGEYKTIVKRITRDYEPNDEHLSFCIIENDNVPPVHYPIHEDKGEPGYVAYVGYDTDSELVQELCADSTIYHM
Source text: in vitro CerS assay, TLC fluorescence of NBD-ceramide on Lag1 | Lag1 (Δlac1Δsur2) has a higher affinity towards PHS than Lac1 (Δlag1Δsur2) | We next determined the Km of Lag1 or Lac1 towards DHS and PHS

Lac1 = target: T2, Lac1 (Saccharomyces cerevisiae, UniProt P28496); test: as above; assay type: cell-free; conditions: labelled compound; 50 μM C26-CoA, 5 μM human ACBP1, 20 μM defatted BSA, 2 mM MgCl2, pH 7.2, 37°C; Δlag1Δsur2 lysate; read-out: apparent Km
T2 construct: native full-length protein in cryo-milled lysate of Δlag1Δsur2 yeast; with Ceramide synthase subunit LIP1
T2 sequence (P28496 2-418): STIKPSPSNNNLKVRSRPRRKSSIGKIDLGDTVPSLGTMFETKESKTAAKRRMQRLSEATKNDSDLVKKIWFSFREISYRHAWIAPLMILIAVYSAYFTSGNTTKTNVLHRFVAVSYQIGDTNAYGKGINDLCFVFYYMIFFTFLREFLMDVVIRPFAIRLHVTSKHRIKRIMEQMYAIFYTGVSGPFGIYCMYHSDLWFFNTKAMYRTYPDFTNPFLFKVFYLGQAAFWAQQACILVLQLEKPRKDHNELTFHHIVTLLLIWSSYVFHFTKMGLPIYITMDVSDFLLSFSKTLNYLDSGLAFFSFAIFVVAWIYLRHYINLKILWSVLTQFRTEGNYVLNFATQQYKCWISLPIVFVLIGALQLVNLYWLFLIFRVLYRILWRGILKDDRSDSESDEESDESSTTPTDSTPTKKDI
T2 sequence (Q03579 1-150 partner): T1 sequence (Q03579 1-150 partner)
Source text: in vitro CerS assay, TLC fluorescence of NBD-ceramide on Lac1 | Lag1 (Δlac1Δsur2) has a higher affinity towards PHS than Lac1 (Δlag1Δsur2) | We next determined the Km of Lag1 or Lac1 towards DHS and PHS

## NBD–DHS
Lag1
  Km: 132 ± 29 µM
Lac1
  Km: 165 ± 56 µM

## NBD–PHS
Lag1
  Km: 30.5 ± 6.6 µM
Lac1
  Km: 128 ± 52.5 µM
